The target in data set [1] is T1, KRAS(G12C) and SOS1 binding (Homo sapiens, UniProt Q07889).
T1 sequence (Q07889 564-1049): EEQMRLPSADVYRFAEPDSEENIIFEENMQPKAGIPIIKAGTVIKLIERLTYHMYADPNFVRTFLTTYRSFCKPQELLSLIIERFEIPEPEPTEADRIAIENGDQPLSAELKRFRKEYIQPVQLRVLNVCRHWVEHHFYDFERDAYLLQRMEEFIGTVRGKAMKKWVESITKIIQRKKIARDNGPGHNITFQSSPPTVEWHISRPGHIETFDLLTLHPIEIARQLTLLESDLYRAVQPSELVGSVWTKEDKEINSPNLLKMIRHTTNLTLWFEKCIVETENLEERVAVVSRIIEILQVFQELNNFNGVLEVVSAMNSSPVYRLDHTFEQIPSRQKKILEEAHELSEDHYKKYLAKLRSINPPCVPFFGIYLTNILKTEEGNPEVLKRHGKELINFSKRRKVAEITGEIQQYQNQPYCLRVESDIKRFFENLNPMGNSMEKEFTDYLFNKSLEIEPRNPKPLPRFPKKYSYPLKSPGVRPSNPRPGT
The data set can be described thus: KRAS (G12C) and SOS1 binding assay (HTRF). Conditions: 25° C., 60 minutes, read-out: IC50, inhibitory activity on KRAS(G12C) and SOS1 binding. The method, then: (§1) 1. Experimental Materials:
Multifunctional microplate reader Nivo5 was purchased from PerkinElmer.
2. Preparation of 1× Buffer:
The buffer for this experiment was the current preparation.
Preparation method: 4-Hydroxyethylpiperazineethanesulfonic acid (Hepes): 5 mM; sodium chloride (NaCl): 150 mM; ethylenediaminetetraacetic acid (EDTA): 10 mM; CO-630 (Igepal): 0.0025%; potassium fluoride (KF): 100 mM; dithiothreitol (DTT): 1 mM; bovine serum albumin (BSA): 0.05%.
• 1) The compounds to be tested were diluted 5-fold with DMSO to the eighth concentration using a row gun, that is, from 1 mM to 0.064 μM. • 2) Each gradient of the compounds to be tested were diluted with 1× buffer into a working solution of 2% DMSO, 5 μL/well was added to the corresponding well, corresponding to a concentration gradient of 20 μM to […], and a double-duplication experiment was set up. The working solution was centrifuged at 1000 rpm for 1 minute. • 3) A mixed working solution of KRAS (G12C) (200 nM) and Mab Anti GST-Eu cryptate (1 ng/μL) was prepared with 1× buffer, then the mixed working solution was incubated at 25° C. for 5 minutes, and 2.5 μL/well was added to the corresponding well. • 4) A mixed working solution of SOS1 (80 nM) and Mab Anti 6HIS-XL665 ([…]) was prepared with 1× buffer, 2.5 μL/well was added to the corresponding well; 2.5 μL of Mab Anti 6HIS-XL665 ([…]) diluent was added to the blank well (Blank), at this time the final concentration gradient of the compounds was 10 μM diluted to 0.64 nM, KRAS (G12C) ([…]), MAb Anti GST-Eu cryptate (0.25 ng/μL), SOS1 (20 nM), Mab Anti 6HIS-XL665 (2 g/μL), and the reaction system was placed at 25° C. for 60 minutes. A multi-label analyzer was used for reading HTRF after the reaction was completed. 4. Data Analysis:
Using the equation (Sample−Min)/(Max−Min)×100% to convert the raw data into inhibition rate, and the value of IC50 might be obtained by curve fitting with four parameters (obtained by “Log(inhibitor) vs. response-Variable slope” mode in GraphPad Prism). Table 1 provides the inhibitory activity of the compounds of the present disclosure on KRAS(G12C) and SOS1 binding.

The test system of data set [2] is A427 cells. Put plainly: In vitro anti-proliferation assay of A427 cells (KRAS G12D). It is filed as cell-based. The following applies: Homo sapiens, A-427, 336 h; A427 cells in agarose gel, 14 days, Almar blue; read-out: IC50, inhibitory activity on the proliferation of A427 cells.
Text: as §1
EMEM culture medium, fetal bovine serum, penicillin/streptomycin antibiotics were purchased from Wisent, and low melting point agarose was purchased from Sigma. Almar blue reagent was purchased from Invitrogen. A427 cell line was purchased from Nanjing Cobioer Biotechnology Co., Ltd. Envision multi-label analyzer (PerkinElmer).
• 1) A427 cells were planted in a 96-well U-shaped plate, and the low melting point agarose was first prepared into a 2% mother solution. When used, the agarose mother solution was first heated in a microwave oven to completely melt, and then placed in a 42° C. water bath to keep the agarose in a liquid state. The gel was added to a serum-containing medium to prepare a gel concentration of 0.6% as the base gel, and spread into a 96-well U-shaped plate at 50 μL per well. After the base gel was solidified, 2% gel was added to a cell-containing medium to prepare a gel concentration of 0.4% of cell-containing top gel with a cell density of 4×10^4 cells/mL, which was added to a 96-well U-shaped plate spread with base gel at 75 μL per well with a cell density of 3000 cells per well. After the top gel was solidified, the cell plate was incubated overnight in a CO2 incubator. • 2) On the day of adding the compounds, 85 μL of liquid medium was added to the 96-well U-shaped plate in which the cells were spread. The compounds to be tested were diluted 3-fold with a row gun to the ninth concentration, that is, from 6 mM to 0.9 μM, and a double-duplication experiment was set up. 97 μL of culture medium was added to a middle plate, and then 2.5 μL of gradient diluted compound per well was transferred to the middle plate according to the corresponding position. After being thoroughly mixed, 40 μL per well was transferred to the cell plate. The concentration range of the compound transferred to the cell plate was 30 μM to 4.5 nM. […] A multi-label analyzer was used for reading. […]

The nature of data set [3]: Pharmacokinetic study in mice. The data set is classed as in vivo. The following applies: mouse, plasma; for AUC(0-t): read-out: AUC0-24 h. Here is the method:
The purpose of this experiment is to evaluate the pharmacokinetic behavior of the compounds after a single intravenous injection or intragastric administration in mice. For intravenous injection, the compound was prepared as a clear solution of 0.2 mg/mL, vehicle: 5% DMSO/95% (10% hydroxypropyl-β-cyclodextrin) aqueous solution; for intragastric administration, the compound was prepared as a suspension of 0.3 mg/mL, vehicle: 5% DMSO/95% (10% hydroxypropyl-β-cyclodextrin) aqueous solution.
The concentrations of compounds in plasma were determined by high performance liquid chromatography-tandem mass spectrometry (LC-MS/MS). Retention time of compounds and internal standard (diclofenac), chromatogram acquisition and integration of chromatogram were processed using the software Analyst (Applied Biosystems), and statistics of the data were processed using the software Watson LIMS (Thermo Fisher Scientific) or Analyst (Applied Biosystems). The concentration of analytes in the sample was expressed in ng/mL, with 3 valid digits retained. All values expressed as percentages (for example, % deviation and % coefficient of variation, etc.) were retained to one decimal point. Each calibration curve contained at least 6 concentration levels. The calibration specimen should be prepared using a stock solution from a different source than the quality control sample. The deviation between the calculated concentration of the calibration specimen and the indicated value exceeds ±15.0% (the lower limit of quantification exceeds ±20.0%) and the specimen should be rejected in the regression analysis. The rejected calibration specimens should be less than 25% and each calibration curve should contain at least 6 calibration specimens that meet the acceptance criteria. If the lower and upper limits of quantification calibration specimens need to be rejected, the upper and lower limits of quantification for the analytical batch will be raised and lowered accordingly.
Plasma concentrations were processed using the non-compartmental model of WinNonlin™ Version 6.3 (Pharsight, Mountain View, CA) pharmacokinetic software, and pharmacokinetic parameters were calculated using the linear-log trapezoidal method. The pharmacokinetic parameters to be calculated include but are not limited to (data permitting) T1/2, Vdss, CL, AUC0-24 h of IV group; Cmax, Tmax, AUC0-24 h, oral bioavailability (F %) of PO group.
The relevant pharmacokinetic parameters of the embodiment of the present disclosure in mice intravenously injected at a dose of 1 mg/Kg and intragastrically administered at a dose of 3 mg/Kg are shown in Table 5 below.

[4] abbreviates: po, intragastric administration, 3 mg/Kg.

Read-outs that look alike come from different tables or passages of the source.

Take `C=CC(Nc1nc(C)nc2cc(=O)n(C3CCOCC3)cc12)c1cc(N)cc(C(F)(F)F)c1` (stereo not shown) [Compound 1]: the IC50 in data set [1] stood at 32 nM.
For the compound `C=CC(Nc1nc(C)nc2cc(=O)n(C3(C)CCOC3)cc12)c1cc(N)cc(C(F)(F)F)c1` (stereo not shown) [Compound 2], the IC50 in data set [1] was 26 nM.
With `C=CC(Nc1nc(C)nc2cc(=O)n(C3(CF)CC3)cc12)c1cc(N)cc(C(F)(F)F)c1` (stereo not shown) [Compound 3], the IC50 in data set [1] worked out at 25 nM.
For `C=CC(Nc1nc(C)nc2cc(=O)n(C34CCC(O)(CC3)CC4)cc12)c1cc(N)cc(C(F)(F)F)c1` (stereo not shown) [Compound 4], in data set [1], the IC50 is 21 nM.
On to `C=C[C@@H](Nc1nc(C)nc2cc(=O)n(C3(C(F)F)CC3)cc12)c1cc(C(F)(F)CO)cs1` [Compound 7], for which the IC50 in data set [1] was 13 nM.
With `C=C[C@@H](Nc1nc(C)nc2cc(=O)n(C3(C(F)F)CC3)cc12)c1cccc(C(F)F)c1F` [Compound 8], in data set [2], the IC50 was at most 100 nM. In data set [3] (intravenous injection, 1 mg/Kg), the clearance stood at 30.5 mL/min/kg, the half-life was 40.2 min and the AUC(0-t) came out at 1.77 µM·h. Moreover, the Vd in data set [3] (intravenous injection, 1 mg/Kg, read-out: Vdss) was 1.84 L/kg. The bioavailability in data set [3] (oral, intragastric 3 mg/Kg vs intravenous 1 mg/Kg, read-out: F % (oral bioavailability)) stood at 109%. Also, in data set [3] (setting [4]), the concentration peaked (Cmax) at 1380 nM, the Tmax is 60 min and the AUC(0-t) was found to be 4.11 µM·h.
`C=C[C@@H](Nc1nc(C)nc2cc(=O)n(C3(C)CCN(C(C)=O)C3)cc12)c1cccc(C(F)F)c1F` (stereo partly shown) [Compound 13]: the IC50 in data set [2] was at most 100 nM.
Turning to `C=C[C@@H](Nc1nc(C)nc2cc(=O)n(C3(C(F)F)CCN(C(C)=O)C3)cc12)c1cccc(C(F)F)c1F` (stereo partly shown) [Compound 15], the IC50 in data set [2] is at most 100 nM.

The values above are taken from patent US12552787B2, “Quinazoline compound” (MEDSHINE DISCOVERY INC., priority 2020, dated 2026).
